Measurements reported in ChEMBL document CHEMBL5576150, “Synthesis and Biological Evaluation of Pyrazole-Pyrimidones as a New Class of Correctors of the Cystic Fibrosis Transmembrane Conductance Regulator (CFTR)” (J Med Chem, 2024).
The source made the active and inactive calls. The calls are words filed in the database; no cut-off is given here.

Key:
[1] = tested on: Cystic fibrosis transmembrane conductance regulator (Homo sapiens), P13569 [F508del]; assay: Corrector activity at 3xHA-tagged full-length human CFTR F508del mutant expressed in human CFBE41o- cells assessed as restoration of plasma membrane density of channel at 10 uM incubated for 24 hrs in presence of VX-809/N-(5-(4-fluorobenzyl)thiazol-2-yl)-2,5-dimethylfuran-3-carboxamide by ELISA relative to wild-type CFTR level; type: cell membranes; conditions: filed as activator
[2] = tested on: Cystic fibrosis transmembrane conductance regulator (Homo sapiens), P13569 [F508del]; assay: (§1) Corrector activity at 3xHA-tagged full-length human CFTR F508del mutant expressed in human CFBE41o- cells assessed as restoration of plasma membrane density of channel incubated for 24 hrs in presence of VX-809/N-(5-(4-fluorobenzyl)thiazol-2-yl)-2,5-dimethylfuran-3-carboxamide by ELISA; type: cell membranes; conditions: filed as activator, dose 10.0 µM
[3] = target: Cystic fibrosis transmembrane conductance regulator (Homo sapiens, UniProt P13569, F508DEL); assay: as §1; type: cell membranes
[4] = tested on: Cystic fibrosis transmembrane conductance regulator (Homo sapiens), P13569 [F508del]; assay: Corrector activity at 3xHA-tagged full-length human CFTR F508del mutant expressed in human CFBE41o- cells assessed as functional rescue of channel by measuring anion transport measured after 24 hrs in presence of VX-809/N-(5-(4-fluorobenzyl)thiazol-2-yl)-2,5-dimethylfuran-3-carboxamide by halide-sensitive YFP quenching assay relative to combination of VX-809/N-(5-(4-fluorobenzyl)thiazol-2-yl)-2,5-dimethylfuran-3-carboxamide; type: cell-based; conditions: filed as activator
[5] = tested on: Cystic fibrosis transmembrane conductance regulator (Homo sapiens), P13569 [F508del]; assay: (§2) Corrector activity at 3xHA-tagged full-length human CFTR F508del mutant expressed in human CFBE41o- cells assessed as rescue of forskolin/VX-770-induced transepithelial short-circuit current measured after 24 hrs in presence of VX-809/N-(5-(4-fluorobenzyl)thiazol-2-yl)-2,5-dimethylfuran-3-carboxamide by electrophysiological method relative to wild-type CFTR activity; type: cell-based; conditions: filed as activator
[6] = tested on: Cystic fibrosis transmembrane conductance regulator (Homo sapiens), P13569 [F508del]; assay: Inhibition of activity of 3xHA-tagged full-length human CFTR F508del mutant expressed in human CFBE41o- cells in presence of VX-809/N-(5-(4-fluorobenzyl)thiazol-2-yl)-2,5-dimethylfuran-3-carboxamide; type: cell-based
[7] = tested on: Cystic fibrosis transmembrane conductance regulator (Homo sapiens), P13569 [F508del]; assay: Corrector activity at CFTR F508del mutant in patient-derived human HBE cells assessed as forskolin/VX-770-induced transepithelial short-circuit current in presence of VX-809/N-(5-(4-fluorobenzyl)thiazol-2-yl)-2,5-dimethylfuran-3-carboxamide by electrophysiological method (reference value: 16 %); type: cell-based; conditions: filed as activator
[8] = tested on: Cystic fibrosis transmembrane conductance regulator (Homo sapiens), P13569 [S13F]; assay: Corrector activity at 3xHA-tagged full-length human CFTR S13F mutant expressed in human CFBE41o- cells assessed as restoration of plasma membrane density of channel in presence of VX-809/N-(5-(4-fluorobenzyl)thiazol-2-yl)-2,5-dimethylfuran-3-carboxamide by ELISA; type: cell membranes; conditions: filed as activator
[9] = tested on: Cystic fibrosis transmembrane conductance regulator (Homo sapiens), P13569 [S492F]; assay: Corrector activity at 3xHA-tagged full-length human CFTR S492F mutant expressed in human CFBE41o- cells assessed as restoration of plasma membrane density of channel in presence of VX-809/N-(5-(4-fluorobenzyl)thiazol-2-yl)-2,5-dimethylfuran-3-carboxamide by ELISA; type: cell membranes; conditions: filed as activator
[10] = tested on: Cystic fibrosis transmembrane conductance regulator (Homo sapiens), P13569 [M1101K]; assay: Corrector activity at 3xHA-tagged full-length human CFTR M1101K mutant expressed in human CFBE41o- cells assessed as restoration of plasma membrane density of channel in presence of VX-809/N-(5-(4-fluorobenzyl)thiazol-2-yl)-2,5-dimethylfuran-3-carboxamide by ELISA relative to wild-type CFTR level; type: cell membranes; conditions: filed as activator
[11] = tested on: Cystic fibrosis transmembrane conductance regulator (Homo sapiens), P13569 [N1303K]; assay: Corrector activity at 3xHA-tagged full-length human CFTR N1303K mutant expressed in human CFBE41o- cells assessed as restoration of plasma membrane density of channel in presence of VX-809/N-(5-(4-fluorobenzyl)thiazol-2-yl)-2,5-dimethylfuran-3-carboxamide by ELISA relative to wild-type CFTR level; type: cell membranes; conditions: filed as activator
[12] = tested on: Cystic fibrosis transmembrane conductance regulator (Homo sapiens), P13569 [R560T]; assay: Corrector activity at 3xHA-tagged full-length human CFTR R560T mutant expressed in human CFBE41o- cells assessed as restoration of plasma membrane density of channel in presence of VX-809/N-(5-(4-fluorobenzyl)thiazol-2-yl)-2,5-dimethylfuran-3-carboxamide by ELISA; type: cell membranes
[13] = tested on: Cystic fibrosis transmembrane conductance regulator (Homo sapiens), P13569 [S13F]; assay: Corrector activity at 3xHA-tagged full-length human CFTR S13F mutant expressed in human CFBE41o- cells assessed as restoration of plasma membrane density of channel in presence of N-(5-(4-fluorobenzyl)thiazol-2-yl)-2,5-dimethylfuran-3-carboxamide incubated for 24 hrs by ELISA; type: cell membranes; conditions: filed as activator
[14] = tested on: Cystic fibrosis transmembrane conductance regulator (Homo sapiens), P13569 [S13F]; assay: Corrector activity at 3xHA-tagged full-length human CFTR S13F mutant expressed in human CFBE41o- cells assessed as restoration of plasma membrane density of channel in presence of VX-809 incubated for 24 hrs by ELISA; type: cell membranes; conditions: filed as activator
[15] = tested on: Cystic fibrosis transmembrane conductance regulator (Homo sapiens), P13569 [S13F]; assay: Corrector activity at 3xHA-tagged full-length human CFTR S13F mutant expressed in human CFBE41o- cells assessed as restoration of plasma membrane density of channel in presence of VX-661 incubated for 24 hrs by ELISA; type: cell membranes; conditions: filed as activator
[16] = tested on: Cystic fibrosis transmembrane conductance regulator (Homo sapiens), P13569 [S492F]; assay: Corrector activity at 3xHA-tagged full-length human CFTR S492F mutant expressed in human CFBE41o- cells assessed as restoration of plasma membrane density of channel in presence of N-(5-(4-fluorobenzyl)thiazol-2-yl)-2,5-dimethylfuran-3-carboxamide incubated for 24 hrs by ELISA; type: cell membranes; conditions: filed as activator
[17] = tested on: Cystic fibrosis transmembrane conductance regulator (Homo sapiens), P13569 [S492F]; assay: Corrector activity at 3xHA-tagged full-length human CFTR S492F mutant expressed in human CFBE41o- cells assessed as restoration of plasma membrane density of channel in presence of VX-809 incubated for 24 hrs by ELISA; type: cell membranes; conditions: filed as activator
[18] = tested on: Cystic fibrosis transmembrane conductance regulator (Homo sapiens), P13569 [S492F]; assay: Corrector activity at 3xHA-tagged full-length human CFTR S492F mutant expressed in human CFBE41o- cells assessed as restoration of plasma membrane density of channel in presence of VX-661 incubated for 24 hrs by ELISA; type: cell membranes; conditions: filed as activator
[19] = tested on: Cystic fibrosis transmembrane conductance regulator (Homo sapiens), P13569 [F508del]; assay: Corrector activity at 3xHA-tagged full-length human CFTR F508del mutant expressed in human CFBE41o- cells assessed as restoration of plasma membrane density of channel in presence of N-(5-(4-fluorobenzyl)thiazol-2-yl)-2,5-dimethylfuran-3-carboxamide incubated for 24 hrs by ELISA; type: cell membranes; conditions: filed as activator
[20] = tested on: Cystic fibrosis transmembrane conductance regulator (Homo sapiens), P13569 [F508del]; assay: Corrector activity at 3xHA-tagged full-length human CFTR F508del mutant expressed in human CFBE41o- cells assessed as restoration of plasma membrane density of channel incubated for 24 hrs in presence of VX-809 by ELISA; type: cell membranes; conditions: filed as activator
[21] = tested on: Cystic fibrosis transmembrane conductance regulator (Homo sapiens), P13569 [F508del]; assay: Corrector activity at 3xHA-tagged full-length human CFTR F508del mutant expressed in human CFBE41o- cells assessed as restoration of plasma membrane density of channel incubated for 24 hrs in presence of VX-661 by ELISA; type: cell membranes; conditions: filed as activator
[22] = tested on: Cystic fibrosis transmembrane conductance regulator (Homo sapiens), P13569 [S13F]; assay: Corrector activity at 3xHA-tagged full-length human CFTR S13F mutant expressed in human CFBE41o- cells assessed as restoration of plasma membrane density of channel incubated for 24 hrs in presence of VX-445 by ELISA; type: cell membranes
[23] = tested on: Cystic fibrosis transmembrane conductance regulator (Homo sapiens), P13569 [S492F]; assay: Corrector activity at 3xHA-tagged full-length human CFTR S492F mutant expressed in human CFBE41o- cells assessed as restoration of plasma membrane density of channel incubated for 24 hrs in presence of VX-445 by ELISA; type: cell membranes
[24] = tested on: Cystic fibrosis transmembrane conductance regulator (Homo sapiens), P13569 [F508del]; assay: Corrector activity at 3xHA-tagged full-length human CFTR F508del mutant expressed in human CFBE41o- cells assessed as restoration of plasma membrane density of channel incubated for 24 hrs in presence of VX-445 by ELISA; type: cell membranes
[25] = tested on: Cystic fibrosis transmembrane conductance regulator (Homo sapiens), P13569 [S13F]; assay: Corrector activity at 3xHA-tagged full-length human CFTR S13F mutant expressed in human CFBE41o- cells assessed as restoration of plasma membrane density of channel at 10 uM incubated for 24 hrs in presence of VX-445 by ELISA; type: cell membranes
[26] = tested on: Cystic fibrosis transmembrane conductance regulator (Homo sapiens), P13569 [S492F]; assay: Corrector activity at 3xHA-tagged full-length human CFTR S492F mutant expressed in human CFBE41o- cells assessed as restoration of plasma membrane density of channel at 10 uM incubated for 24 hrs in presence of VX-661/VX-445 by ELISA; type: cell membranes; conditions: filed as activator
[27] = tested on: Cystic fibrosis transmembrane conductance regulator (Homo sapiens), P13569 [F508del]; assay: Corrector activity at 3xHA-tagged full-length human CFTR F508del mutant expressed in human CFBE41o- cells assessed as restoration of plasma membrane density of channel at 10 uM incubated for 24 hrs in presence of VX-661/VX-445 by ELISA; type: cell membranes; conditions: filed as activator
[28] = tested on: Cystic fibrosis transmembrane conductance regulator (Homo sapiens), P13569 [S492F]; assay: as §2, with “S492F” for “F508del”, “current at 10 uM” for “current”, “method” for “method relative to wild-type CFTR activity”; type: cell-based; conditions: filed as activator

Cystic fibrosis transmembrane conductance regulator (Homo sapiens), P13569 [F508del], sequence (P13569 as listed by the source): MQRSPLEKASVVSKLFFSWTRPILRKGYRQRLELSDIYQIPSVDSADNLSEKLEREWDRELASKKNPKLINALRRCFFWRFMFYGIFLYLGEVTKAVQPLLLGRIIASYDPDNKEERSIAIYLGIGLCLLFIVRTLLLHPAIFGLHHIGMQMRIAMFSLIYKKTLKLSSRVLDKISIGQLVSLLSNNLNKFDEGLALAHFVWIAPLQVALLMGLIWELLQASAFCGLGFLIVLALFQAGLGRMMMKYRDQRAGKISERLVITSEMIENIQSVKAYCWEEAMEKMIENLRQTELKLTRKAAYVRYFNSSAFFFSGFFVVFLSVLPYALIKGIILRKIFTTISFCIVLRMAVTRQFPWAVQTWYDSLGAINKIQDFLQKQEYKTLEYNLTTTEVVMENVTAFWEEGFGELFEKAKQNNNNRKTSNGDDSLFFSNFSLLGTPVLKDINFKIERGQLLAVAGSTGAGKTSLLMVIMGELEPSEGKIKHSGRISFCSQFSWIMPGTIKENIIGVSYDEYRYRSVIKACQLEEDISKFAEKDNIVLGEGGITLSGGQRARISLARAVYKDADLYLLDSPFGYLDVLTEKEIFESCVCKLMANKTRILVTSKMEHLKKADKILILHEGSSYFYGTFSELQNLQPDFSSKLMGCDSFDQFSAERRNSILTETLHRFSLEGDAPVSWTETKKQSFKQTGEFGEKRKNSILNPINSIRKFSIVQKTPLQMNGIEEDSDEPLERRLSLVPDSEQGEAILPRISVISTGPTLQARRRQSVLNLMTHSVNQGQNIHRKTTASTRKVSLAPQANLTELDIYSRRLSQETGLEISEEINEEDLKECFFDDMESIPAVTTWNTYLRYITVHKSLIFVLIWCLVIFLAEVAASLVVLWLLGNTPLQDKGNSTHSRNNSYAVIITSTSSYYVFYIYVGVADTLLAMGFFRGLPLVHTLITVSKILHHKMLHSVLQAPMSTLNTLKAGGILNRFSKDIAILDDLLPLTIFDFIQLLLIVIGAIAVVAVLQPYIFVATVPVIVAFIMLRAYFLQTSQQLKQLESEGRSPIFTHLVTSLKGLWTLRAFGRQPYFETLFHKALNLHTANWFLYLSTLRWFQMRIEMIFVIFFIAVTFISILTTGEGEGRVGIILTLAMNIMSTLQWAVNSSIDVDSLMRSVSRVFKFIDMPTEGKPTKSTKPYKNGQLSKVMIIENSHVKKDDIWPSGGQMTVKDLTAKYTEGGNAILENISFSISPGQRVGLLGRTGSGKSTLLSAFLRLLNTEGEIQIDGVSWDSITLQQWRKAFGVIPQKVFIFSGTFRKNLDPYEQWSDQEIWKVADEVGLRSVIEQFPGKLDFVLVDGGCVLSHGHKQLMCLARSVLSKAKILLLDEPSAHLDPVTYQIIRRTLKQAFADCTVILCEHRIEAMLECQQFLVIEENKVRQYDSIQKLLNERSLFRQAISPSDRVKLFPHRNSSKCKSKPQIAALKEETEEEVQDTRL
Cystic fibrosis transmembrane conductance regulator (Homo sapiens), P13569 [S13F], sequence (P13569 whole entry S13F): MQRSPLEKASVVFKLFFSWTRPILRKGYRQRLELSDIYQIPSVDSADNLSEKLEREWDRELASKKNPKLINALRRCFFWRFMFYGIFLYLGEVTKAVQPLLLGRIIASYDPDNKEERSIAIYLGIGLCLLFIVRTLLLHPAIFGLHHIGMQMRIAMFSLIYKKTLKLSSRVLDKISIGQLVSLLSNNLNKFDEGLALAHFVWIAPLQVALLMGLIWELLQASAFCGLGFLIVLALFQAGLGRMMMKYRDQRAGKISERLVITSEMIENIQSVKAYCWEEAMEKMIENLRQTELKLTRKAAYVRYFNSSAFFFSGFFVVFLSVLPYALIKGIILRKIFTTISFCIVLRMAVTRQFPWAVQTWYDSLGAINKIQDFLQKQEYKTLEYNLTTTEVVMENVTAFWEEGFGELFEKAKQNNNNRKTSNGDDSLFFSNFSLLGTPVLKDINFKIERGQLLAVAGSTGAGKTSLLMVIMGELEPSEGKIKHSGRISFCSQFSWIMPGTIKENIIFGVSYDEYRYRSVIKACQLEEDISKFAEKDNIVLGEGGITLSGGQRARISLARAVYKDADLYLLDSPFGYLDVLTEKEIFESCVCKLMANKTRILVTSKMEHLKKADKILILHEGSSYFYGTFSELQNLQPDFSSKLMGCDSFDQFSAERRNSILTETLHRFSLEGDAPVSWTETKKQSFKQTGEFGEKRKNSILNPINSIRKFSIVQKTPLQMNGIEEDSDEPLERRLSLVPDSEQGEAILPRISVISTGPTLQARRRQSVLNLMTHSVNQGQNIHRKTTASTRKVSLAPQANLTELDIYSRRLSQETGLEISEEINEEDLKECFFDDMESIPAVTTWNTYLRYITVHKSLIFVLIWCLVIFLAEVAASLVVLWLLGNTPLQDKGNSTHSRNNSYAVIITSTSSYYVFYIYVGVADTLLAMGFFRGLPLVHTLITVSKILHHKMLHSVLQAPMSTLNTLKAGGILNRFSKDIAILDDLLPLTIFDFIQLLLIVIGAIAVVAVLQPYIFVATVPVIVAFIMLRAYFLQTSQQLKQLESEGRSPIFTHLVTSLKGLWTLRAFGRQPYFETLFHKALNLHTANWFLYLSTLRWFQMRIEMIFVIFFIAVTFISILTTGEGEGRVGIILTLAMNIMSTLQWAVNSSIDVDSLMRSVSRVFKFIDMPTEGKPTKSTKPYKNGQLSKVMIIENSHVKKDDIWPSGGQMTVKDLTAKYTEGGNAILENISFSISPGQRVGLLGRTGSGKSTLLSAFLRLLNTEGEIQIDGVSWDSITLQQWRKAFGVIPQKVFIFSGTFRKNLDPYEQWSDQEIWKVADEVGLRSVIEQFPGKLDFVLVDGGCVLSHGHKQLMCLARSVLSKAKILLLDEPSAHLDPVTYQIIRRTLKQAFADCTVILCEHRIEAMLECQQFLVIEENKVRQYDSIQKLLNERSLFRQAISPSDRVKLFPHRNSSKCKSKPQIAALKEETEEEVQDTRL
Cystic fibrosis transmembrane conductance regulator (Homo sapiens), P13569 [S492F], sequence (P13569 whole entry S492F): as the sequence (P13569 whole entry S13F) above, with F13S, S492F counted along it
Cystic fibrosis transmembrane conductance regulator, sequence (P13569 as listed by the source): as the sequence (P13569 as listed by the source) above
Cystic fibrosis transmembrane conductance regulator (Homo sapiens), P13569 [N1303K], sequence (P13569 whole entry N1303K): as the sequence (P13569 whole entry S13F) above, with F13S, N1303K counted along it
Cystic fibrosis transmembrane conductance regulator (Homo sapiens), P13569 [M1101K], sequence (P13569 whole entry M1101K): as the sequence (P13569 whole entry S13F) above, with F13S, M1101K counted along it
Cystic fibrosis transmembrane conductance regulator (Homo sapiens), P13569 [R560T], sequence (P13569 whole entry R560T): as the sequence (P13569 whole entry S13F) above, with F13S, R560T counted along it

Cc1cc(=O)[nH]c(-n2nc(-c3ccccc3)cc2NC(=O)C2(c3ccc(Cl)cc3)CCCC2)n1
Activity [1]: 67%

CC(C)(Oc1ccc(Cl)cc1)C(=O)Nc1cc(-c2cccs2)nn1-c1nc2c(c(=O)[nH]1)CCCC2
Activity [2]: Dose-Dependent Effect | EC50 [3]: 6.16 µM | Activity [4]: 250% | Activity [5]: 80% | inhibition [6]: inactive | Activity [7]: 50% | Activity [8]: Active | Activity [9]: Active | Activity [10]: 15% | Activity [11]: 15% | Activity [12]: inactive | Activity [13]: Active | Activity [14]: Active | Activity [15]: Active | Activity [16]: Active | Activity [17]: Active | Activity [18]: Active | Activity [19]: Active | Activity [20]: Active | Activity [21]: Active | Activity [22]: inactive | Activity [23]: inactive | Activity [24]: inactive | Activity [25]: inactive | Activity [26]: Active | Activity [27]: Active | Activity [28]: Active
